# From US20240197891A1, “PHARMACEUTICAL COMPOSITIONS COMPRISING POH DERIVATIVES” (UNIVERSITY OF SOUTHERN CALIFORNIA, priority 2021, published 2024)
# Key:
# [1] = tested on: TMZ resistant (U251TR) U251 cells; test: Colony forming assay, TMZ resistant U251TR cells; type: cell-based, human
# Experimental: Colony forming assays were carried out after cells were treated with TMZ alone, POH alone, and the TMZ-POH conjugate. […] Cancer Lett. 2011 Mar. 28; 302(2):100-8.
# [2] = tested on: follistatin, α6β4 integrin, Yap1; test: Staining of the skin for follistatin, α6β4 integrin and Yap1; type: in vivo
# Excerpt: Activins are members of the transforming growth factor-β family of growth and differentiation factors. The biological activity of activins is regulated by the secreted glycoprotein follistatin, which sequesters activins and thus inhibits their biological activities. Follistatin controls keratinocyte proliferation in skin wounds. Most importantly, it has been shown that limited activation of activin in keratinocytes is beneficial for the wound healing process. FIGS. 27A-C show the staining of the skin with activation of follistatin with POH-LA conjugate (FIG. 27A), POH, (FIG. 27B), and Linoleic Acid (FIG. 27C).
# FIGS. 27D-F show the staining of the skin with activation of α6β4 integrin with POH-LA conjugate (FIG. 27D), POH, (FIG. 27E), and Linoleic Acid (FIG. 27F).
# Yap1 is a critical modulator of epidermal stem cell proliferation and tissue expansion. α-catenin controls Yap1 activity and phosphorylation by modulating its interaction with 14-3-3 and the PP2A phosphatase. This aids in the identification of Yap1 as a determinant of the proliferative capacity of epidermal stem cells and as an important effector of a “crowd control” molecular circuitry in mammalian skin. FIGS. 27G-I show the staining of the skin with activation of Yap1 with POH-LA conjugate (FIG. 27G), POH, (FIG. 27H), and Linoleic Acid (FIG. 27I).
# [3] = tested on: cyclobutane pyrimidine dimers (CPD) and pyrimidine (6-4) pyrimidone photoproducts (6-4PP); test: DNA damage (6-4PP and CPD) in UV exposed mouse skin; type: in vivo; conditions: skin DNA following UV exposure
# Excerpt: FIGS. 26A and 26B show the DNA damage that occurs following UV exposure with and without POH-LA conjugate treatment. Upon euthanasia of animals, skin tissues were collected from the back of the animals, fixed in formalin, and processed for analysis. Absorption of ultraviolet (UV) light produces two predominant types of DNA damage, cyclobutane pyrimidine dimers (CPD) and pyrimidine (6-4) pyrimidone photoproducts (6-4PP). UV DNA Damage standards for comparison to UV exposed mouse skin extracted DNA were used. Both the standard and sample DNA are first heat denatured before they are adsorbed onto a 96-well DNA high-binding plate. The 6-4PP (FIG. 26A) and CPDs (FIG. 26B) present in the sample or standard are probed with an anti6-4PP or CPD antibody, followed by an HRP conjugated secondary antibody. The 6-4PP or CPD content in an unknown sample is determined by comparing with a standard curve that is prepared from predetermined CPD-DNA standards 1,000-1.56 ng/ml). […] The skin has important barrier, sensory, and immune functions, contributing to the health and integrity of the organism. […]
# FIGS. 26A and 26B show the DNA damage that occurs following UV exposure with and without POH-LA conjugate treatment. […] The 6-4PP or CPD content in an unknown sample is determined by comparing with a standard curve that is prepared from predetermined CPD-DNA standards 1,000-1.56 ng/ml).
smiles,measurement,setting,value
"C=C(C)[C@@H]1CC=C(CO)CC1 [POH, perillyl alcohol]",cytotoxicity (colony forming assay),[1],demonstrated cytotoxicity
"C=C(C)[C@@H]1CC=C(COC(=O)CCCCCCC/C=C\C/C=C\CCCCC)CC1 [POH-LA conjugate, Octadeca-9,12-dienoic acid 4-isopropenyl-cyclohex-1-enylmethyl ester]",activation of cellular proteins,[2],enhance the activation of cellular proteins
same,skin regeneration via stem cell activation,[2],stimulate skin regeneration via stem cell activation
same,DNA damage (6-4PP and CPD content),[3],less DNA damage
